# Several values for one entry are separate records, joined by “and”; a condition that tells them apart may be missing. Equal entries are not always repeated. Where two headings read alike, the source gives them in different places.
# Experiments:
# TNF-alpha = experiment: LPS induced TNF-alpha inhibition (whole blood / THP-1 cells, ELISA); assay type: cell-based, human
# Protocol: Following incubation with LPS, PBS was added (800 uL) and samples were spun for 10 minutes at 1500 g. […] TNFα protein concentrations were measured using R&D Systems high sensitivity ELISA kit.
# The lipid peroxidation assay method of Ohkawa, H.; Ohishi, N.; Yaki, K. Anal. Biochem. 1979, 95, 351 was used to evaluate TNF α. […] Cells were induced with 25 ng/mL LPS for another 3 hrs. Cells were collected and spun at 1500 g for 10 minutes. Supernatant was collected and analyzed for TNFα.
# OT-551 was used in both native form and in the form of nanoparticles. […] Other nitrogenous heterocyclic species of the invention are expected to show similar improvement in efficacy when disposed in nanoparticulate form.
# [1] = test system: Angiogenesis in CAM model; experiment: Neovascularization on the CAM (chick chorioallantoic membrane model of angiogenesis); assay type: in vivo, chicken; conditions: for Percent inhibition of angiogenesis in CAM model at 30 ug: unit assumed; for Percent inhibition of angiogenesis in CAM model at 30 ug / CAM data % Inhibition: 30 ug
# Summary of the method: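 Chick CAM of 10-day embryos given filter disks pretreated with cortisone acetate and saturated with bFGF (1 μg/ml) or other pro-angiogenic factors. After 24-48 hr, 10-25 ul test agent was injected intravenously or applied topically. After 3 days at 37° C, vessel branch points under each disk were counted at 50× (8 CAMs/group) and converted to % inhibition relative to positive and negative controls.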
# lipid peroxidation = experiment: Lipid peroxidation inhibition (method of Ohkawa); assay type: biochemical; conditions: for Lipid Peroxidation % Inhibition: 10 uM
# [2] = test system: Human neuroblastoma SKN-SH cells, resistant to doxorubicin; experiment: Chemoresistance: cancer cell viability (MTT) in presence or absence of doxorubicin; assay type: cell-based; conditions: for Mean OD (×10^−3), cancer cell viability: compound 50 ug/mL, MTT
# Summary of the method: (§1)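 Doxorubicin-resistant SKN-SH neuroblastoma cells, selected by stepwise exposure to 10^−9–10^−6 M doxorubicin over 3 months, in DMEM/10% FBS at 37 °C. Treated with doxorubicin alone or with hydroxylamine for 72 h (96 h in one variant). MTT read at 570 nm, survival relative to untreated cells.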
# [3] = test system: Human neuroblastoma SKN-SH cells; experiment: Chemoresistance: cancer cell viability (MTT) in presence or absence of doxorubicin; assay type: cell-based; conditions: compound alone; P<0.001
# Summary of the method: as §1
# [4] = test system: bFGF (FGF2) stimulated angiogenesis in CAM model; experiment: Angiogenesis in the CAM model using bFGF stimulus; assay type: in vivo, chicken; conditions: FGF2 (1 ug) + 30 ug injected
# Protocol: The number of vessel branch points contained in a circular region equal to the area of a filter disk was counted for each section. Percent inhibition data are expressed as the quotient of the experimental value minus the negative control value divided by the difference between the positive control value and the negative control value. One image was counted in each CAM preparation, and findings from eight CAM preparations were analyzed for each treatment condition. In addition, each experiment was performed three times. The resulting angiogenesis index is the mean ± SEM (Standard Error of Measurement) of new branch points in each set of treatment. Statistical analysis of blood vessel branching patterns are performed by 1-way analysis of variance (ANOVA) comparing experimental with corresponding control groups. Statistical significance differences are assessed at P value of <0.05.
# Assessment of Angiogenesis in the CAM Model Using bFGF Stimulus.
# The CAM model protocol was modified to include stimulus with bFGF. The effect of injected OT 551 was assayed.
# [5] = Ocular permeability and retinal levels after topical administration; assay type: in vivo
melting point,Compound,Lipid Peroxidation % Inhibition (lipid peroxidation),Percent inhibition of angiogenesis in CAM model at 30 ug [1],"Mean OD (×10^−3), cancer cell viability ([2]; Dox. 10^−6 M present (+))","Mean OD (×10^−3), cancer cell viability ([2]; Dox. absent (−))",% Lipid Peroxidation inhibition (at 1 uM) (lipid peroxidation),other results
–,"CC1(C)CC(O)CC(C)(C)N1O [TEMPOL-H, 2,2,6,6-tetramethylpiperidine-1,4-diol, reference compound]",–,–,–,–,–,"inhibition at 10 µM (TNF-alpha; Homo sapiens, THP-1, compound 10 uM, 5 ng/mL LPS, read-out: Mean Percent Inhibition of TNF-alpha using 5 ng/mL LPS): 74 ± 8%; effect of H2O2 in the CAM model ([1]; H2O2 induced angiogenesis, FIG. 1): dose dependent effect"
158.1 °C (dec.),"CC1(C)CC(NC(=O)N2CCOCC2)CC(C)(C)N1O.Cl [Compound 11, N-(2,2,6,6-tetramethylpiperidin-1-hydroxyl-4-yl)morpholine-4-carboxamide]",82.7%,71%,267.25 ×10^−3,470.25 ×10^−3,–,–
184.6 °C (dec.),"CC1(C)COCC(C)(C)N1O.Cl [Compound 20, 3,3,5,5-1-hydroxy-tetramethylmorpholine]",90.2%,78.6%,107.5 ×10^−3,515.50 ×10^−3,–,–
–,"Cc1nsnc1OCC1=CC(C)(C)N(O)C1(C)C [Compound 47, 3-((1-hydroxy-2,5-dihydro-2,2,5,5-tetramethyl-1H-pyrrol-3-yl)methoxy)-4-methyl-1,2,5-thiadiazole]",–,–,261.00 ×10^−3,1168.33 ×10^−3,60.3%,"IC50 (TNF-alpha; Homo sapiens, THP-1, read-out: TNFalpha IC50): ≥ 100 µM"
191.5 °C (dec.),"CC1C(O)C(C)C(C)(C)N(O)C1(C)C.Cl (centres unmarked) [Compound 6, 2,2,3,5,6,6-Hexamethyl-piperidine-1,4-diol]",89.0%,40.4%,185.25 ×10^−3,367.00 ×10^−3,70.5%,–
–,"CC1(C)CC(Oc2nsnc2N2CCOCC2)CC(C)(C)N1O.Cl [Compound 4, 4-(4-(2,2,6,6-tetramethylpiperidin-1-hydroxyl-4-yloxy)-1,2,5-thiazol-3-yl)morpholine]",91.4%,92.8%,88.00 ×10^−3,468.50 ×10^−3,87.0%,"reversal of drug resistance ([2]; combined with doxorubicin, osteosarcoma, breast cancer, and neuroblastoma): strong ability to reverse drug resistance; killing of doxorubicin-resistant cells ([2]; compound alone, P<0.001): enhanced the killing; killing of doxorubicin-sensitive cells [3]: enhanced the killing"
–,"CC1(C)CC(=O)CC(C)(C)N1O [Compound 5, 1-Hydroxy-2,2,6,6-tetramethyl-piperidin-4-one]",86.3%,–,245.50 ×10^−3,556.50 ×10^−3,71.0%,"inhibition at 10 µM (TNF-alpha; Homo sapiens, THP-1, read-out: Mean Percent Inhibition of TNF-alpha using 5 ng/mL LPS): 66 ± 7%; IC50 (TNF-alpha; Homo sapiens, THP-1, read-out: TNFalpha IC50 (uM)): 22.2 µM"
–,"1-hydroxyl-4-(4-(2,2,6,6-tetramethylpiperidin-1-hydroxyl-4-yloxy)-1,2,5-thiadiazol-3-yloxy)-2,2,6,6-tetramethylpiperidine [Compound 14]",95.2%,75.1%,–,–,88.6%,"Mean Percent Inhibition of TNF-alpha using 5 ng/mL LPS (TNF-alpha; compound 10 uM, 5 ng/mL LPS): 63 ± 1%; IC50 (TNF-alpha; read-out: TNFalpha IC50): 11.4 µM; CAM data % Inhibition [1]: 95.2%"
–,"CC1(C)C=C(C(N)=O)C(C)(C)N1O [Compound 23, 2,5-dihydro-2,2,5,5-tetramethyl-1H-pyrrole-3-carboxamide-1-hydroxy]",–,48.8%,416.25 ×10^−3,1432.50 ×10^−3,–,IC50 (TNF-alpha; read-out: TNFalpha IC50): 87.4 µM
225.5 °C (dec.),"CC1(C)c2ccc(C(=O)O)cc2C(C)(C)N1O.Cl [Compound 15, 1,1,3,3-tetramethylisoindolin-2-hydroxyl-5-carboxylic acid]",94.6%,71.8%,–,–,88.0%,–
–,"Cc1cc(O)c(O)cc1C(=O)NC1CC(C)(C)N(O)C(C)(C)C1.Cl [Compound 27, 4,5-dihydroxy-2-methyl-N-(1-hydroxy-2,2,6,6-tetramethylpiperidin-4-yl)benzamide]",–,88.3%,403.75 ×10^−3,1038.33 ×10^−3,53.4%,–
–,CC1(C)CC(OC(=O)C2CC2)CC(C)(C)N1O.Cl [OT-551 HCl],–,–,–,–,–,"Mean Percent Inhibition of TNF-alpha using 5 ng/mL LPS (TNF-alpha; compound 10 uM, 5 ng/mL LPS): 68 ± 6%; CAM data % Inhibition [1]: 75.2 ± 9.7% and 79.6 ± 7.9% and 74 ± 4%; % Inhibition ± SEM [4]: 74 ± 4%; Branch pts ± SEM [4]: 87 ± 3; levels in the retina ([5]; after topical administration): good levels; permeability through the cornea ([5]; in vivo): good permeability"
180.5 °C (dec.),"CC(=O)NC1CC(C)(C)N(O)C(C)(C)C1.Cl [Compound 2, 1-hydroxy-4-acetamido-2,2,6,6-tetramethylpiperidine]",81.0%,76%,249.25 ×10^−3,496.33 ×10^−3,–,–
